Eight molecules from PMC5820588, “Isolation and Biological Evaluation of Prenylated Flavonoids from Maclura pomifera” (Evidence-based Complementary and Alternative Medicine : eCAM, 2018) can be followed below.

A value given as a limit tells only on which side of the number the result lay.

For orientation: IC50 means the point on the concentration scale where inhibition reaches its midpoint. The Ki is a measure of affinity in units of concentration, obtained from inhibition or displacement. Read a low Ki as a stronger hold on the target.

Test [1] addresses T1, recombinant human monoamine oxidase-A (Homo sapiens, UniProt P21397).
T1 construct: purchased BD Biosciences (Bedford, MA, USA)
T1 sequence (P21397 1-527): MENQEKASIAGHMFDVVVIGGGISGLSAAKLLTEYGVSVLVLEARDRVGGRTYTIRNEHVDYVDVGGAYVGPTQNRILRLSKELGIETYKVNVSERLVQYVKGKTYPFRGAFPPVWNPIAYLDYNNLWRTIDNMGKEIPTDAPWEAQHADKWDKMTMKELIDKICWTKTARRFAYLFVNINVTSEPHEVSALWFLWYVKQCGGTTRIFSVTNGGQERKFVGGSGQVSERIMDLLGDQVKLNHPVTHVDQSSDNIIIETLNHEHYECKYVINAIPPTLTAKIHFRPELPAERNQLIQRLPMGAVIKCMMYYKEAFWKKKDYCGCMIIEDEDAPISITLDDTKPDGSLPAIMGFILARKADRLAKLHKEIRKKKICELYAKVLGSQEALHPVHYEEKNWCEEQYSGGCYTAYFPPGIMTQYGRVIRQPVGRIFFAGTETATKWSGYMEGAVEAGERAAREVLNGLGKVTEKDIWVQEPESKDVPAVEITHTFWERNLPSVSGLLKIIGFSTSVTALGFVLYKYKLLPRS
As to the kind of experiment: MAO-A inhibition, kynuramine deamination assay. In kind it is biochemical. To be noted: kynuramine 80 μM, pH 7.4, 37°C; mean ±SD of triplicate. Here is the method:
(§1) The inhibitory effects of the chemical components of M. pomifera (L.) on MAO-A and MAO-B were determined via the kynuramine deamination assay, where it was adapted for 96-well plates as described earlier. A fixed concentration of the substrate and varying concentrations of the inhibitor were used to determine the IC50 value at the point where 50% inhibition of the catalytic activity of the enzyme occurred. For MAO-A, the substrate (kynuramine) concentration of 80 μM was chosen, since the KM value of substrate binding reported previously was approximately 40 μM [23]. […] Similarly, for MAO-B, a substrate (kynuramine) concentration of 50 μM was chosen. The assay was performed with the addition of the inhibitor. Inhibition was calculated as percent of the product formation compared to the corresponding control (enzyme-substrate reaction) without the inhibitors. The enzyme reactions were carried out in 0.1 M potassium phosphate buffer at pH 7.4. Reaction mixtures contained 5 μg/mL of MAO-A (18.75 μL in buffer) and 10 μg/mL of MAO-B (18.75 μL in buffer). The compounds were dissolved in DMSO and diluted in buffer. The total reaction mixture volume was 75 μL, yielding a final DMSO concentration of 1.0% in the reaction mixture. The reaction mixtures were preincubated for 10 min at 37°C followed by the addition of MAO-A/MAO-B to initiate the reactions. The reaction mixtures were incubated for 20 min at 37°C and stopped by the addition of 28 μL of 2 N NaOH. The formation of 4-hydroxyquinoline was determined fluorometrically by Spectra Max M5 fluorescence plate reader (Molecular Devices, Sunnyvale, CA, USA) with an excitation and emission wavelength of 320 nm and 380 nm, respectively, using the Soft Max Pro program. Appropriate controls were set up to check the interference with the fluorescence measurements. […] The determination of IC50 values for inhibition of MAO-A and MAO-B by the M. pomifera (L.) compounds was performed using a fixed concentration of the substrate and varying the concentration of the inhibitor.
(§2) The compounds isolated from M. pomifera (L.) fruits were tested for their inhibitory effect against recombinant human MAO isoforms (MAO-A and MAO-B) in vitro. The enzymatic activity of MAO-A and MAO -B was determined via a fluorescence based method.

Test [2] concerns the target T2, recombinant human monoamine oxidase-B (Homo sapiens, UniProt P27338).
T2 construct: purchased BD Biosciences (Bedford, MA, USA)
T2 sequence (P27338 1-520): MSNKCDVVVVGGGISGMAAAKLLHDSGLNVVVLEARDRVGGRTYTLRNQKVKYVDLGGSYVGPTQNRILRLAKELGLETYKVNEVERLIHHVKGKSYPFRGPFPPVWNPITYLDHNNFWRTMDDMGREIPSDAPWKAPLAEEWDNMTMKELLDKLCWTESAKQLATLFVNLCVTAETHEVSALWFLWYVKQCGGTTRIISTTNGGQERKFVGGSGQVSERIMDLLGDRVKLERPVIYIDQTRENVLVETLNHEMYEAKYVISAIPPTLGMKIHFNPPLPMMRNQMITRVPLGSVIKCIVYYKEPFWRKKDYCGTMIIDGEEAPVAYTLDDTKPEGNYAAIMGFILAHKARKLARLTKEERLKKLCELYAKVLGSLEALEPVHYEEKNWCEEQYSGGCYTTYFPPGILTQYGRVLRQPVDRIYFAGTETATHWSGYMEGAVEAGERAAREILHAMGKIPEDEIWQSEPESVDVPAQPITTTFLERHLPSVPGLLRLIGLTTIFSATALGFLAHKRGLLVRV
As to the kind of experiment: MAO-B inhibition, kynuramine deamination assay. As to conditions: for Selectivity of MAO inhibition: MAO-B versus MAO-A; for IC50: kynuramine 50 μM, pH 7.4, 37°C, mean ±SD of triplicate; for SI index MAO-A/B: ratio of MAO-A IC50 to MAO-B IC50. In kind it is biochemical. How it is done:
as §1, §2

The next test concerns the target CB1 receptor (Homo sapiens, UniProt P21554). As to the kind of experiment: Cannabinoid receptor assay, CB1 (CP-55940 as control). In kind it is binding. How it is done:
(§3) The affinities of the total extracts and the isolated compounds towards cannabinoid and opioid receptors were assessed according to the published method.
(§4) The affinities of the total extracts and the isolated compounds towards cannabinoid and opioid receptors were assessed using CP-55940 and Naloxone as controls for cannabinoid and opioid receptors assays, respectively.

The target of a further test is CB2 receptor (Homo sapiens, UniProt P34972). As to the kind of experiment: Cannabinoid receptor assay, CB2 (CP-55940 as control). In kind it is binding. Here is the method:
as §3, §4

A further test concerns the target κ opioid receptor (Homo sapiens, UniProt P41145). The test can be described thus: Opioid receptor assay, κ (Naloxone as control). In kind it is binding. To be noted: negative value read as possibly allosteric. Here is the method: as §3, §4
A further test deals with μ opioid receptor (Homo sapiens, UniProt P35372). As to the kind of experiment: Opioid receptor assay, μ (Naloxone as control). As to conditions: negative value read as possibly allosteric. In kind it is binding. Here is the method:
as §3, §4

Sequence of CB1 receptor (P21554 whole entry): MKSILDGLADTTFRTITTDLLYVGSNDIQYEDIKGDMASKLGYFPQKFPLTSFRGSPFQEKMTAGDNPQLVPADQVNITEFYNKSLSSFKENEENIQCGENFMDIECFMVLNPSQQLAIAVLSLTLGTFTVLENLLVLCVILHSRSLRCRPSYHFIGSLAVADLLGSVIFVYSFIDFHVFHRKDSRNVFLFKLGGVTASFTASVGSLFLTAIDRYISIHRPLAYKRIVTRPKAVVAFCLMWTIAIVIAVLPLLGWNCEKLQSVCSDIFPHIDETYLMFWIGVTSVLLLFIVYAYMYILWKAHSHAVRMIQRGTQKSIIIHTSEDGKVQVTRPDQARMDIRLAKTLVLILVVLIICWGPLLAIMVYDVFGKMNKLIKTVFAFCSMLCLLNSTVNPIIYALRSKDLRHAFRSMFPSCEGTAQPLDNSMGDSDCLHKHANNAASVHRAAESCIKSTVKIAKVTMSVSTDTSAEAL
Sequence of CB2 receptor (P34972 whole entry): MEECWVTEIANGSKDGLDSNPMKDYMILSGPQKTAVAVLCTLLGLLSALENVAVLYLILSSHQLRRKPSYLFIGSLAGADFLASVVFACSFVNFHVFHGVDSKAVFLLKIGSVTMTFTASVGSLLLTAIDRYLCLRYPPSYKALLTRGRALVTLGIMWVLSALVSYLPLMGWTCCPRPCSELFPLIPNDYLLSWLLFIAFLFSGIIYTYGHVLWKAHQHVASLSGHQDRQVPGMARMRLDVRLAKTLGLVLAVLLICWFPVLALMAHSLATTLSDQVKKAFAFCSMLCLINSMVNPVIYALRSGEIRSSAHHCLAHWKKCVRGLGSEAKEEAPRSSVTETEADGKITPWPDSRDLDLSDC
Sequence of κ opioid receptor (P41145 whole entry): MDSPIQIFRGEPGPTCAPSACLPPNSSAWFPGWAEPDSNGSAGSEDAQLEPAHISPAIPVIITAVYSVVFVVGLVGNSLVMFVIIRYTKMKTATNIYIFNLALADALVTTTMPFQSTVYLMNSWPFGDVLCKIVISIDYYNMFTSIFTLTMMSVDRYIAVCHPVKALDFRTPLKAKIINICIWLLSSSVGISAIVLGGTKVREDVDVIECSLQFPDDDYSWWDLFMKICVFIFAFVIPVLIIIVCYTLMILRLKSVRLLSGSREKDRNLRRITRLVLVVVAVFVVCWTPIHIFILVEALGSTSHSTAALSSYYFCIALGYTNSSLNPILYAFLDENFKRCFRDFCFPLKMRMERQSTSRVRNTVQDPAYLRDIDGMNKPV
Sequence of μ opioid receptor (P35372 whole entry): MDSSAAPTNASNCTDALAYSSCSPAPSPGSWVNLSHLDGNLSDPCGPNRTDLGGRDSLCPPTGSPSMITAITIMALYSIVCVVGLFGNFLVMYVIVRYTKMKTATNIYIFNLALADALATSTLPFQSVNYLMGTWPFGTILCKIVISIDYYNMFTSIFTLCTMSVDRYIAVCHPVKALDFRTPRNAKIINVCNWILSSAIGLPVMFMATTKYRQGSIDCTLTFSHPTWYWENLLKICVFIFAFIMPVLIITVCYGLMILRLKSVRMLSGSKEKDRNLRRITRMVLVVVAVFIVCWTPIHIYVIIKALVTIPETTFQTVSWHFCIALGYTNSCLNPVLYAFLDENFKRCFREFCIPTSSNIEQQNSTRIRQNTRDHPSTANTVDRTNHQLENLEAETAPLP

With `CC1(C)C=Cc2c(c3c(c4c(=O)c(-c5ccc(O)cc5)coc24)OC(C)(C)C(O)C3)O1` (stereo not drawn) [Kazosajin III, 11-Hydroxy-7-(4-hydroxyphenyl)-2,2,10,10-tetramethyl-11,12-dihydro-2H-dipyrano[2,3-f: 2′,3′-h]chromen-8(10H)-one], in test [1], the IC50 is more than 100 µM. Besides, in test [2], the “Selectivity of MAO inhibition” value is “selective inhibition of MAO-B” and the IC50 amounted to 7.16 ± 1.15 µM.

As for `C=C(C)C(O)C(=O)c1c2c(c3occ(-c4ccc(O)c(O)c4)c(=O)c3c1O)C=CC(C)(C)O2` (stereo not drawn) [Kazosajin II, 3-(3,4-Dihydroxyphenyl)-5-hydroxy-6-(2-hydroxy-3-methylbut-3-enoyl)-8,8-dimethylpyrano[2,3-f]chromen-4(8H)-one], at CB1 receptor (concentration not given), the “CB1 % displacement” value was found to be 47.9%. In addition, on CB2 receptor (concentration not given), the “CB2 % displacement” value was found to be 42.3%. For the same molecule, in test [1], the IC50 came to 72 ± 3.72 µM. Further, in test [2], the “Selectivity of MAO inhibition” value is recorded as “selective inhibition of MAO-B”, the IC50 stood at 4.28 ± 0.67 µM and the “SI index MAO-A/B” value came out at 16.829.

On to `CC(C)=CCc1c2c(c3occ(-c4ccc(O)cc4)c(=O)c3c1O)C=CC(C)(C)O2` [Osajin (VIII), osajin], for which the IC50 is 3860 nM at CB1 receptor, 7.65 µM on CB2 receptor, more than 100 µM in test [1] and more than 100 µM in test [2]. For the same molecule, the Ki is 1930 nM on CB1 receptor and 3.82 µM on CB2 receptor. Besides, the CB1 % displacement on CB1 receptor (10 μM) and at CB1 receptor (concentration not given) was 93.9% in each case. For the same molecule, the CB2 % displacement on CB2 receptor (10 μM) and at CB2 receptor (concentration not given) was 52.7% each time.

On to `CC(C)=CCc1c2c(c(O)c3c(=O)c(-c4ccc(O)cc4)coc13)C=CC(C)(C)O2` [Warangalone (VII), warangalone], for which the IC50 is 1670 nM on CB1 receptor, 4.44 µM at CB2 receptor, more than 100 µM in test [1] and 5.69 ± 0.38 µM in test [2]. Also, the CB1 % displacement at CB1 receptor (10 μM) and at CB1 receptor (concentration not given) was 111.3% in each case. The molecule further yielded a Ki on CB2 receptor of 2.22 µM. Moreover, the figures for the CB2 % displacement at CB2 receptor (10 μM) and on CB2 receptor (concentration not given) were 77.6% and 77.57%, respectively. In test [2], the “Selectivity of MAO inhibition” value was “selective inhibition of MAO-B”.

Consider `COC(c1c2c(c(O)c3c(=O)c(-c4ccc(O)c(O)c4)coc13)C=CC(C)(C)O2)C1OC1(C)C` (stereo not drawn) [Kazosajin IV, 3-(3,4-Dihydroxyphenyl)-10-((3,3-dimethyloxiran-2-yl)(methoxy)methyl)-5-hydroxy-8,8-dimethylpyrano[3,2-g]chromen-4(8H)-one], for which the IC50 in test [1] was 71.2 ± 2.61 µM. Further, in test [2], the IC50 came to 17.7 ± 1.06 µM and the “SI index MAO-A/B” value amounted to 4.032.

As for `CC(C)=CCc1c2c(c3occ(-c4ccc(O)c(O)c4)c(=O)c3c1O)C=CC(C)(C)O2` [Pomiferin (V), pomiferin], the IC50 is 2110 nM on CB1 receptor, 1.32 µM against CB2 receptor, more than 100 µM in test [1] and more than 100 µM in test [2]. In addition, the Ki at CB1 receptor worked out at 1050 nM. Also, the CB1 % displacement on CB1 receptor (10 μM) and at CB1 receptor (concentration not given) was 107.2% throughout. Moreover, the CB2 % displacement at CB2 receptor (10 μM) and on CB2 receptor (concentration not given) was 66.0% each time.

As to `CC(C)=CCc1c2c(c(O)c3c(=O)c(-c4ccc(O)c(O)c4)coc13)C=CC(C)(C)O2` [Auriculasin (VI), auriculasin], on CB1 receptor, half-maximal inhibition (IC50) required 8920 nM and the Ki was determined as 4460 nM. Also, on CB1 receptor (10 μM), the CB1 % displacement is 86.7%. The IC50 in test [1] stood at 46 ± 4.48 µM. For the same molecule, in test [2], the “Selectivity of MAO inhibition” value is “selective inhibition of MAO-B”, the IC50 is 1.91 ± 0.32 µM and the “SI index MAO-A/B” value was determined as 24.073.

Turning to `COC(Cc1c2c(c(O)c3c(=O)c(-c4ccc(O)c(O)c4)coc13)C=CC(C)(C)O2)C(C)(C)O` (stereo not drawn) [Kazosajin I, 3-(3,4-Dihydroxyphenyl)-5-hydroxy-10-(3-hydroxy-2-methoxy-3-methylbutyl)-8,8-dimethylpyrano[3,2-g]chromen-4(8H)-one], the “CB1 % displacement” value on CB1 receptor (concentration not given) is 60.5%. Moreover, on κ opioid receptor, the “κ opioid receptor % displacement” value was −88.4%. Further, at μ opioid receptor, the “μ opioid receptor % displacement” value is −27.2%. Further, the IC50 in test [1] was 74.3 ± 3.44 µM; in test [2], 11.6 ± 1.39 µM. Besides, the “SI index MAO-A/B” value in test [2] stood at 6.413.
